Where two headings read alike, the source gives them in different places. Values belong to the compound of their own block, whether it stands above or below them.
Columns and labels:
[1] = tested on: Zymoseptoria tritici; assay: Leaf Blotch of Wheat (SEPTTR) disease control on wheat seedlings; format: in vivo; conditions: for pest or weed control at 121.5 g/ha: Low Volume (121.5 g/H); for pest or weed control at 100 µg/mL: High Volume (100 ppm)
Description: Example A: Evaluation of Fungicidal Activity: Leaf Blotch of Wheat (Mycosphaerella graminicola; Anamorph: Zymoseptoria tritici; Bayer code […]) Technical grades of materials were dissolved in acetone, which were then mixed with nine volumes of water containing 110 ppm Triton X-100. The fungicide solutions were applied onto wheat seedlings using an automated booth sprayer to run-off. All sprayed plants were allowed to air dry prior to further handling. All fungicides were evaluated using the aforementioned method for their activity vs. all target diseases, unless stated otherwise. Wheat leaf blotch and brown rust activity were also evaluated using track spray applications, in which case the fungicides were formulated as EC formulations, containing 0.1% Trycol 5941 in the spray solutions. Wheat plants (variety Yuma) were grown from seed in a greenhouse in 50% mineral soil/50% soil-less Metro mix until the first leaf was fully emerged, with 7-10 seedlings per pot. These plants were inoculated with an aqueous spore suspension of Septoria tritici either prior to or after fungicide treatments. After inoculation the plants were kept in 100% relative humidity (one day in a dark dew chamber followed by two to three days in a lighted dew chamber at 20° C.) to permit spores to germinate and infect the leaf. The plants were then transferred to a greenhouse set at 20° C. for disease to develop. When disease symptoms were fully expressed on the 1st leaves of untreated plants, infection levels were assessed on a scale of 0 to 100 percent disease severity. Percent disease control was calculated using the ratio of disease severity on treated plants relative to untreated plants.

[2] = tested on: Puccinia triticina; assay: Wheat Brown Rust (PUCCRT) disease control on wheat seedlings; format: in vivo; conditions: for pest or weed control at 121.5 g/ha: Low Volume (121.5 g/H); for pest or weed control at 100 µg/mL: High Volume (100 ppm)
Description: Technical grades of materials were dissolved in acetone, which were then mixed with nine volumes of water containing 110 ppm Triton X-100. The fungicide solutions were applied onto wheat seedlings using an automated booth sprayer to run-off. All sprayed plants were allowed to air dry prior to further handling. All fungicides were evaluated using the aforementioned method for their activity vs. all target diseases, unless stated otherwise. Wheat leaf blotch and brown rust activity were also evaluated using track spray applications, in which case the fungicides were formulated as EC formulations, containing 0.1% Trycol 5941 in the spray solutions. Wheat plants (variety Yuma) were grown from seed in a greenhouse in 50% mineral soil/50% soil-less Metro mix until the first leaf was fully emerged, with 7-10 seedlings per pot. These plants were inoculated with an aqueous spore suspension of Septoria tritici either prior to or after fungicide treatments. After inoculation the plants were kept in 100% relative humidity (one day in a dark dew chamber followed by two to three days in a lighted dew chamber at 20° C.) to permit spores to germinate and infect the leaf. The plants were then transferred to a greenhouse set at 20° C. for disease to develop. When disease symptoms were fully expressed on the 1st leaves of untreated plants, infection levels were assessed on a scale of 0 to 100 percent disease severity. Percent disease control was calculated using the ratio of disease severity on treated plants relative to untreated plants. Example B: Evaluation of Fungicidal Activity: Wheat Brown Rust (Puccinia triticina; Synonym: Puccinia recondita f. sp. tritici; Bayer code PUCCRT) Wheat plants (variety Yuma) were grown from seed in a greenhouse in 50% mineral soil/50% soil-less Metro mix until the first leaf was fully emerged, with 7-10 seedlings per pot. These plants were inoculated with an aqueous spore suspension of Puccinia triticina either prior to or after fungicide treatments. After inoculation the plants were kept in a dark dew room at 22° C. with 100% relative humidity overnight to permit spores to germinate and infect the leaf. The plants were then transferred to a greenhouse set at 24° C. for disease to develop. Fungicide formulation, application and disease assessment followed the procedures as described in the Example A.

[3] = tested on: Phakopsora pachyrhizi; assay: Asian Soybean Rust (PHAKPA) disease control; format: in vivo; conditions: 25 ppm
Description: Example H: Evaluation of Fungicidal Activity: Asian Soybean Rust (Phakopsora pachyrhizi; Bayer Code […]) Technical grades of materials were dissolved in acetone, which were then mixed with nine volumes of water containing 0.011% Tween 20. The fungicide solutions were applied onto soybean seedlings using an automated booth sprayer to run-off. All sprayed plants were allowed to air dry prior to further handling. Soybean plants (variety Williams 82) were grown in soil-less Metro mix, with one plant per pot. Two weeks old seedlings were used for testing. Plants were inoculated either 3 days prior to or 1 day after fungicide treatments. Plants were incubated for 24 h in a dark dew room at 22° C. and 100% relative humidity then transferred to a growth room at 23° C. for disease to develop. Disease severity was assessed on the sprayed leaves.

[4] = 24 h, 1 Day Protectant, read-out: SEPTTR disease control, 1 DP
[5] = 72 h, 3 Day Curative, read-out: SEPTTR disease control, 3 DC
[6] = 24 h, 1 Day Protectant, read-out: PUCCRT disease control, 1 DP
[7] = 72 h, 3 Day Curative, read-out: PUCCRT disease control, 3 DC

melting point: 49 to 54 °C
Compound: COc1ccnc(C(=O)N[C@H]2CCO[C@H](CCc3ccc(F)cc3)[C@@H](CCC(C)C)[C@H](C)OC2=O)c1OCOC(C)=O [Compound 27]
pest or weed control at 121.5 g/ha [1, 4]: > 70%
pest or weed control at 121.5 g/ha [1, 5]: > 70%
pest or weed control at 121.5 g/ha [2, 6]: > 70%
pest or weed control at 121.5 g/ha [2, 7]: > 70%

melting point: 55 to 60 °C
Compound: COc1ccnc(C(=O)N[C@H]2CCO[C@H](Cc3ccccc3)[C@@H](CCC(C)C)[C@H](C)OC2=O)c1OCOC(C)=O [Compound 29]
pest or weed control at 121.5 g/ha [1, 4]: > 70%
pest or weed control at 121.5 g/ha [1, 5]: > 70%
pest or weed control at 121.5 g/ha [2, 6]: > 70%
pest or weed control at 121.5 g/ha [2, 7]: > 70%

melting point: 49 to 54 °C
Compound: COc1ccnc(C(=O)N[C@H]2CCO[C@H](CCc3ccc(F)cc3)[C@@H](CCC(C)C)[C@H](C)OC2=O)c1OCOC(=O)C(C)C [Compound 39]
pest or weed control at 121.5 g/ha [1, 4]: > 70%
pest or weed control at 121.5 g/ha [1, 5]: < 70%
pest or weed control at 121.5 g/ha [2, 6]: > 70%
pest or weed control at 121.5 g/ha [2, 7]: > 70%

melting point: 54 to 59 °C
Compound: COc1ccnc(C(=O)N[C@H]2CCOC[C@@H](Cc3ccccc3-c3ccccc3)[C@H](C)OC2=O)c1OCOC(=O)C(C)C [Compound 40]
pest or weed control at 121.5 g/ha [1, 4]: > 70%
pest or weed control at 121.5 g/ha [1, 5]: > 70%
pest or weed control at 121.5 g/ha [2, 6]: > 70%
pest or weed control at 121.5 g/ha [2, 7]: > 70%

Compound: CCC[C@H]1OCC[C@H](NC(=O)c2nccc(OC)c2OCOC(=O)COCC)C(=O)O[C@@H](C)[C@@H]1Cc1ccccc1 [Compound 43]
PHAKPA disease control, 1DP ([3]; 1 Day Protectant): A (>70)
PHAKPA disease control, 3DC ([3]; 3 Day Curative): A (>70)
pest or weed control at 100 µg/mL [1, 4]: > 70%
pest or weed control at 121.5 g/ha [1, 4]: > 70%
pest or weed control at 100 µg/mL [1, 5]: > 70%
pest or weed control at 121.5 g/ha [1, 5]: > 70%
pest or weed control at 100 µg/mL [2, 6]: > 70%
pest or weed control at 121.5 g/ha [2, 6]: > 70%
pest or weed control at 100 µg/mL [2, 7]: > 70%
pest or weed control at 121.5 g/ha [2, 7]: > 70%

melting point: 52 to 56 °C
Compound: CCC[C@H]1OCC[C@H](NC(=O)c2nccc(OC)c2O)C(=O)O[C@@H](C)[C@@H]1Cc1ccccc1 [Compound 50]
pest or weed control at 100 µg/mL [1, 4]: > 70%
pest or weed control at 100 µg/mL [1, 5]: > 70%
pest or weed control at 100 µg/mL [2, 6]: > 70%
pest or weed control at 100 µg/mL [2, 7]: > 70%

melting point: 44 to 46 °C
Compound: CCCC[C@H]1[C@H](C)OC(=O)[C@@H](NC(=O)c2nccc(OC)c2O)CCO[C@@H]1CC [Compound 67]
pest or weed control at 100 µg/mL [1, 4]: > 70%
pest or weed control at 100 µg/mL [1, 5]: < 70%
pest or weed control at 100 µg/mL [2, 6]: > 70%
pest or weed control at 100 µg/mL [2, 7]: > 70%

— patent US9686984B2, “Macrocyclic picolinamides as fungicides” (DOW AGROSCIENCES LLC, priority 2014, dated 2017)
